We go through four compounds from patent publication US7592458B2, “Dermal anesthetic compounds and pharmaceutical compositions for inducing local anesthesia and mitigating neuropathic pain” (priority 2006, dated 2009).

The test system of this experiment is guinea pigs. Put plainly: Local anesthetic activity (infiltration anesthesia), pin-prick method after intradermal injection. The class given is in vivo, guinea pig. To be noted: 0.1 ml intradermal.

The structures appear in SMILES notation. Where a name gives a salt, the structure may show the parent alone. Marks after values point to notes of the source that are not given here.

Consider `CCN(CC)CC(=O)Nc1c(C)cccc1C` [Lidocaine.HCl, lidocaine, reference compound], for which the “Dermal anesthesia after intradermal injection: non-responding pinpricks of 36” value (0.25%, 15 min) is given as 31/36; the “Dermal anesthesia after intradermal injection: non-responding pinpricks of 36” value (0.25%, 30 min) was 21/36; the “Dermal anesthesia after intradermal injection: non-responding pinpricks of 36” value (0.25%, 60 min) is 6/36; the “Dermal anesthesia after intradermal injection: non-responding pinpricks of 36” value (0.25%, 90 min) is given as 4/36; the “Dermal anesthesia after intradermal injection: non-responding pinpricks of 36” value (0.25%, 120 min) is given as 1/36; the “Dermal anesthesia after intradermal injection: non-responding pinpricks of 36” value (0.50%, 15 min) is reported as 24/36. The “Dermal anesthesia after intradermal injection: non-responding pinpricks of 36” value is, setting by setting: (0.50%, 30 min) 18/36; (0.50%, 60 min) 11/36; (0.50%, 90 min) 10/36; (0.50%, 120 min) 9/36; (1.00%, 15 min) 32/36; (1.00%, 30 min) 28/36. For the same compound, the “Dermal anesthesia after intradermal injection: non-responding pinpricks of 36” value runs as follows: (1.00%, 60 min) 9/36; (1.00%, 90 min) 8/36; (1.00%, 120 min) 6/36.
As to `c1ccc(N(CCC2CCCCN2)C2CCc3ccccc3C2)cc1` (stereo not drawn) [CLAC-34•HCl], the “Dermal anesthesia after intradermal injection: non-responding pinpricks of 36” value by setting is: (0.05%, 15 min) 35/36*; (0.05%, 30 min) 36/36**; (0.05%, 60 min) 6/36; (0.05%, 90 min) 36/36; (0.05%, 120 min) 36/36; (0.10%, 15 min) 36/36. In addition, the “Dermal anesthesia after intradermal injection: non-responding pinpricks of 36” value was 36/36 (0.10%, 30 min); 36/36 (0.10%, 60 min); 36/36 (0.10%, 90 min); 36/36 (0.10%, 120 min).
For `CCCN(CCC)CCN(c1ccccc1)C1CCc2ccccc2C1` (stereo not drawn) [CLAC-PP•HCl], the “Dermal anesthesia after intradermal injection: non-responding pinpricks of 36” value (0.05%, 15 min) is recorded as 36/36; the “Dermal anesthesia after intradermal injection: non-responding pinpricks of 36” value (0.05%, 30 min) is 36/36; the “Dermal anesthesia after intradermal injection: non-responding pinpricks of 36” value (0.05%, 60 min) is given as 36/36; the “Dermal anesthesia after intradermal injection: non-responding pinpricks of 36” value (0.05%, 90 min) is 36/36; the “Dermal anesthesia after intradermal injection: non-responding pinpricks of 36” value (0.05%, 120 min) is 36/36; the “Dermal anesthesia after intradermal injection: non-responding pinpricks of 36” value (0.10%, 15 min) is 36/36. For the same compound, the “Dermal anesthesia after intradermal injection: non-responding pinpricks of 36” value runs as follows: (0.10%, 30 min) 36/36; (0.10%, 60 min) 36/36; (0.10%, 90 min) 36/36; (0.10%, 120 min) 36/36.
As for `CCCCN1CCCCC1CCN(c1ccccc1)C1CCc2ccccc2C1` (stereo not drawn) [Bu-CLAC-34•HCl], the “Dermal anesthesia after intradermal injection: non-responding pinpricks of 36” value is reported as 36/36 (0.05%, 15 min); 36/36 (0.05%, 30 min); 36/36 (0.05%, 60 min); 36/36 (0.05%, 90 min); 36/36 (0.05%, 120 min); 36/36 (0.10%, 15 min). Moreover, the “Dermal anesthesia after intradermal injection: non-responding pinpricks of 36” value is, setting by setting: (0.10%, 30 min) 36/36; (0.10%, 60 min) 36/36; (0.10%, 90 min) 36/36; (0.10%, 120 min) 36/36.
